The supplement of paper PMC10627819

What was measured:
S. aureus DSM 20231 [1] = assay: Bliss interaction score (quartile over a dose matrix) (fitness difference); higher = more antagonism (negative = synergy)
Outline: (§1)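 Growth in each well was taken as OD595 at entry into stationary phase. Dividing by the plate's robust no-drug mean and capping at 1 gave fitness, and single-drug fitness was inferred from the combination data. The Bliss score, observed minus product-expected fitness, is summarised by quartiles over technical, biological and donor/recipient replicates.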

S. pneumoniae D39V [2] = assay: as above
Outline: as §1

S. aureus Newman [3] = assay: as above
Outline: as §1

B. subtilis 168 = assay: as above
Outline: as §1

S. aureus DSM 20231 [4] = assay: fitness (endpoint OD595 vs no drug) (fraction); higher = more growth
Outline: (§2)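 Cultures at OD595 0.01 were dispensed into 384-well plates in TSB, LB Lennox or CY and incubated at 37 °C. Every 30 min for 14 h, OD595 was read and corrected by the first reading. Fitness is the optical density at entry into stationary phase relative to the robust mean of no-drug control wells, capped at 1.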

S. aureus Newman [5] = assay: as above
Outline: as §2

S. pneumoniae D39V [6] = assay: as above
Outline: as §2
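For Bliss interaction score (quartile over a dose matrix) in this document: first quartile when negative (synergy) and third quartile when positive (antagonism).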

CCCCCCCCCC(=O)N[C@H]1[C@H](Oc2c3cc4cc2Oc2ccc(cc2Cl)[C@@H](O[C@@H]2O[C@H](CO)[C@@H](O)[C@H](O)[C@H]2NC(C)=O)[C@@H]2NC(=O)[C@H](NC(=O)[C@@H]4NC(=O)[C@H]4NC(=O)[C@@H](Cc5ccc(c(Cl)c5)O3)NC(=O)[C@H](N)c3ccc(O)c(c3)Oc3cc(O)cc4c3)c3ccc(O)c(c3)-c3c(O[C@H]4O[C@H](CO)[C@@H](O)[C@H](O)[C@@H]4O)cc(O)cc3[C@@H](C(=O)O)NC2=O)O[C@H](CO)[C@@H](O)[C@@H]1O [Teicoplanin] + CC1=C\[C@@H](O)CC(=O)Cc2nc(co2)C(=O)N2CCC=C2C(=O)O[C@H](C(C)C)[C@H](C)/C=C/C(=O)NC\C=C\1 [Virginiamycin M1]
main component drawn
Details | Bliss interaction score
B. subtilis 168 | 0.117
S. aureus DSM 20231 [1] | 0.101
S. aureus Newman [3] | 0.0746
S. pneumoniae D39V [2] | 0.262

fitness, S. aureus DSM 20231 [4], main component drawn
Details | first compound 0.1562 µg/mL | first compound 0.3125 µg/mL | first compound 0.625 µg/mL
partner 0.0625 µg/mL | 0.996 | ≥ 1 | ≥ 1
partner 0.125 µg/mL | ≥ 1 | ≥ 1 | ≥ 1
partner 0.25 µg/mL | ≥ 1 | ≥ 1 | ≥ 1

fitness, one replicate, main component drawn
Details | first compound 0.1562 µg/mL | first compound 0.3125 µg/mL | first compound 0.62 µg/mL | first compound 0.625 µg/mL | first compound 1.24 µg/mL | first compound 2.48 µg/mL
S. aureus DSM 20231 [4], partner 0.5 µg/mL | ≥ 1 | ≥ 1 | – | ≥ 1 | – | –
S. aureus DSM 20231 [4], partner 1 µg/mL | 0.864 | 0.861 | – | ≥ 1 | – | –
S. aureus Newman [5], partner 0.0625 µg/mL | ≥ 1 | 0.97 | 0.773 | 0.843 | 0.78 | 0.473
S. aureus Newman [5], partner 0.125 µg/mL | ≥ 1 | ≥ 1 | 0.784 | 0.774 | 0.764 | 0.529
S. aureus Newman [5], partner 0.25 µg/mL | ≥ 1 | ≥ 1 | 0.831 | 0.839 | 0.766 | 0.486
S. aureus Newman [5], partner 0.5 µg/mL | 0.945 | 0.989 | – | ≥ 1 | – | –
S. aureus Newman [5], partner 1 µg/mL | ≥ 1 | 0.971 | – | ≥ 1 | – | –
S. aureus Newman [5], partner 2 µg/mL | 0.876 | 0.951 | – | ≥ 1 | – | –

CCCCCCCCCC(=O)N[C@H]1[C@H](Oc2c3cc4cc2Oc2ccc(cc2Cl)[C@@H](O[C@@H]2O[C@H](CO)[C@@H](O)[C@H](O)[C@H]2NC(C)=O)[C@@H]2NC(=O)[C@H](NC(=O)[C@@H]4NC(=O)[C@H]4NC(=O)[C@@H](Cc5ccc(c(Cl)c5)O3)NC(=O)[C@H](N)c3ccc(O)c(c3)Oc3cc(O)cc4c3)c3ccc(O)c(c3)-c3c(O[C@H]4O[C@H](CO)[C@@H](O)[C@H](O)[C@@H]4O)cc(O)cc3[C@@H](C(=O)O)NC2=O)O[C@H](CO)[C@@H](O)[C@@H]1O [Teicoplanin] + CN[C@H](CC(C)C)C(=O)N[C@H]1C(=O)N[C@@H](CC(N)=O)C(=O)N[C@H]2C(=O)N[C@H]3C(=O)N[C@H](C(=O)N[C@H](C(=O)O)c4cc(O)cc(O)c4-c4cc3ccc4O)[C@H](O)c3ccc(c(Cl)c3)Oc3cc2cc(c3O[C@@H]2O[C@H](CO)[C@@H](O)[C@H](O)[C@H]2O[C@H]2C[C@](C)(N)[C@H](O)[C@H](C)O2)Oc2ccc(cc2Cl)[C@H]1O [Vancomycin]
main component drawn
Details | Bliss interaction score
B. subtilis 168 | -0.0512
S. aureus DSM 20231 [1] | -0.0576
S. aureus Newman [3] | 0.0485
S. pneumoniae D39V [2] | 0.0981

fitness, main component drawn
Details | first compound 0.1562 µg/mL | first compound 0.3125 µg/mL | first compound 0.625 µg/mL
S. aureus DSM 20231 [4], partner 0.1875 µg/mL | 0.979 | ≥ 1 | ≥ 1
S. aureus DSM 20231 [4], partner 0.375 µg/mL | 0.834 | ≥ 1 | 0.956
S. aureus DSM 20231 [4], partner 0.75 µg/mL | 0.932 | ≥ 1 | 0.976
S. aureus Newman [5], partner 0.1875 µg/mL | ≥ 1 | ≥ 1 | 0.914
S. aureus Newman [5], partner 0.375 µg/mL | ≥ 1 | ≥ 1 | 0.881
S. aureus Newman [5], partner 0.75 µg/mL | 0.992 | 0.949 | 0.816

fitness, S. aureus Newman [5], one replicate, main component drawn
Details | first compound 0.62 µg/mL | first compound 1.24 µg/mL | first compound 2.48 µg/mL
partner 0.1875 µg/mL | 0.814 | 0.811 | 0.418
partner 0.375 µg/mL | 0.733 | 0.757 | 0.402
partner 0.75 µg/mL | 0.734 | 0.689 | 0.148

CN[C@H](CC(C)C)C(=O)N[C@H]1C(=O)N[C@@H](CC(N)=O)C(=O)N[C@H]2C(=O)N[C@H]3C(=O)N[C@H](C(=O)N[C@H](C(=O)O)c4cc(O)cc(O)c4-c4cc3ccc4O)[C@H](O)c3ccc(c(Cl)c3)Oc3cc2cc(c3O[C@@H]2O[C@H](CO)[C@@H](O)[C@H](O)[C@H]2O[C@H]2C[C@](C)(N)[C@H](O)[C@H](C)O2)Oc2ccc(cc2Cl)[C@H]1O [Vancomycin] + CC1=C\[C@@H](O)CC(=O)Cc2nc(co2)C(=O)N2CCC=C2C(=O)O[C@H](C(C)C)[C@H](C)/C=C/C(=O)NC\C=C\1 [Virginiamycin M1]
Details | Bliss interaction score
B. subtilis 168 | -0.0585
S. aureus DSM 20231 [1] | 0.0837
S. aureus Newman [3] | 0.0634
S. pneumoniae D39V [2] | 0.128

Details | fitness
S. aureus DSM 20231 [4], first compound 0.1875 µg/mL, partner 0.0625 µg/mL | ≥ 1
S. aureus DSM 20231 [4], first compound 0.1875 µg/mL, partner 0.125 µg/mL | ≥ 1
S. aureus DSM 20231 [4], first compound 0.1875 µg/mL, partner 0.25 µg/mL | 0.998
S. aureus DSM 20231 [4], first compound 0.375 µg/mL, partner 0.0625 µg/mL | ≥ 1
S. aureus DSM 20231 [4], first compound 0.375 µg/mL, partner 0.125 µg/mL | ≥ 1
S. aureus DSM 20231 [4], first compound 0.375 µg/mL, partner 0.25 µg/mL | ≥ 1
S. aureus DSM 20231 [4], first compound 0.75 µg/mL, partner 0.0625 µg/mL | ≥ 1
S. aureus DSM 20231 [4], first compound 0.75 µg/mL, partner 0.125 µg/mL | ≥ 1
S. aureus DSM 20231 [4], first compound 0.75 µg/mL, partner 0.25 µg/mL | ≥ 1
S. aureus Newman [5], first compound 0.1875 µg/mL, partner 0.0625 µg/mL | 0.991
S. aureus Newman [5], first compound 0.1875 µg/mL, partner 0.125 µg/mL | 0.994
S. aureus Newman [5], first compound 0.1875 µg/mL, partner 0.25 µg/mL | 0.99
S. aureus Newman [5], first compound 0.375 µg/mL, partner 0.0625 µg/mL | ≥ 1
S. aureus Newman [5], first compound 0.375 µg/mL, partner 0.125 µg/mL | 0.988
S. aureus Newman [5], first compound 0.375 µg/mL, partner 0.25 µg/mL | 0.977
S. aureus Newman [5], first compound 0.75 µg/mL, partner 0.0625 µg/mL | ≥ 1
S. aureus Newman [5], first compound 0.75 µg/mL, partner 0.125 µg/mL | 0.995
S. aureus Newman [5], first compound 0.75 µg/mL, partner 0.25 µg/mL | 0.962
S. pneumoniae D39V [6], first compound 0.03125 µg/mL, partner 0.5 µg/mL | ≥ 1
S. pneumoniae D39V [6], first compound 0.03125 µg/mL, partner 1 µg/mL | ≥ 1
S. pneumoniae D39V [6], first compound 0.03125 µg/mL, partner 2 µg/mL | 0.982
S. pneumoniae D39V [6], first compound 0.0625 µg/mL, partner 0.5 µg/mL | 0.982
S. pneumoniae D39V [6], first compound 0.0625 µg/mL, partner 1 µg/mL | 0.97
S. pneumoniae D39V [6], first compound 0.0625 µg/mL, partner 2 µg/mL | 0.971
S. pneumoniae D39V [6], first compound 0.125 µg/mL, partner 0.5 µg/mL | 0.988
S. pneumoniae D39V [6], first compound 0.125 µg/mL, partner 1 µg/mL | 0.939
S. pneumoniae D39V [6], first compound 0.125 µg/mL, partner 2 µg/mL | 0.945
S. pneumoniae D39V [6], first compound 0.25 µg/mL, partner 2 µg/mL | 0.881

fitness, one replicate
Details | partner 0.15 µg/mL | partner 0.3 µg/mL | partner 0.5 µg/mL | partner 1 µg/mL | partner 2 µg/mL
S. aureus DSM 20231 [4], first compound 0.1875 µg/mL | – | – | 0.766 | 0.687 | –
S. aureus DSM 20231 [4], first compound 0.375 µg/mL | – | – | 0.727 | 0.733 | –
S. aureus DSM 20231 [4], first compound 0.75 µg/mL | – | – | 0.795 | 0.791 | –
S. aureus Newman [5], first compound 0.1875 µg/mL | – | – | 0.913 | 0.98 | 0.883
S. aureus Newman [5], first compound 0.375 µg/mL | – | – | 0.887 | 0.97 | 0.861
S. aureus Newman [5], first compound 0.75 µg/mL | – | – | 0.815 | 0.93 | 0.903
S. pneumoniae D39V [6], first compound 0.125 µg/mL | ≥ 1 | ≥ 1 | – | – | –
S. pneumoniae D39V [6], first compound 0.25 µg/mL | 0.946 | 0.993 | 0.873 | 0.681 | –
S. pneumoniae D39V [6], first compound 0.5 µg/mL | 0.355 | 0.71 | 0.366 | 0.0772 | –
